Measured values reported in article PMC10917278, “Structural insights into the modulation Of SOD1 aggregation By a fungal metabolite Phialomustin-B: Therapeutic potential in ALS” (PLOS ONE, 2024).
Entries after “also recorded” stand apart in the source; their conditions may differ.

Key:
SOD1^A123F = molecular target: T1, SOD1^A123F (Homo sapiens, UniProt P00441, A124F); assay: MST binding assay, site-specific mutant SOD1^A123F; conditions: PBS buffer, mutant 25 nM, PB 30.5 nM to 250 μM, 25 °C
T1 construct: His-tag (cleaved yes); made in house; host or cells: E. coli BL21-DE3
T1 sequence (P00441 whole entry A124F): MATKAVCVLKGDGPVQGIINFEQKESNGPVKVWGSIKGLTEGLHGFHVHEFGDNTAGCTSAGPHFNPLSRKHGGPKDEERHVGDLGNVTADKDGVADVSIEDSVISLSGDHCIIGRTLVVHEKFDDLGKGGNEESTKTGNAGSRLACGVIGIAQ
Experimental: (§1) To further validate the binding of PB to SOD1, site-directed mutagenesis was performed for the interacting residues at the binding sites of PB. The point mutations generated on the SOD1 protein are K9F, G10P, L42R, and A123F. The MST assay was carried out on these mutants against PB (Fig 5). The dose-response curve with the highest signal-to-noise ratio, high response amplitude, and lowest error rate was selected for measuring the binding affinity (Kd) value. […] Binding at the electrostatic loop is affected majorly by mutating residues at A123 to phenylalanine and L42 to arginine. […] Taken together, the binding affinities of these mutants confirm the ligand bindings at these sites of SOD1 are specific.
(§2) Fig 5 MST interaction analysis of fluorescently labeled SOD1 mutants against PB. The binding of PB to fluorescently Cys-labeled SOD1- variants is quantified in PBS buffer. The concentration of PB varied from 30.5 nM to 250 μM, while the respective mutants were kept constant at 25 nM. MST experiments were conducted at 20% LED excitation and medium MST power at 25 °C. […] Error bars indicate the standard error of the mean, SEM (n = 3). […] The ligand PB is printed only in the titles of panels a-d, so the mutant names are used as the substance labels.
(§3) Binding studies were performed for SOD1^WT and the ligands using microscale thermophoresis (MST). […]

SOD1^WT = molecular target: T2, SOD1^WT (Homo sapiens, UniProt P00441); assay: Microscale thermophoresis (MST) binding assay, Cys-labeled SOD1^WT; conditions: PBS buffer, protein 25 nM, PB 30.5 nM to 250 μM, 25 °C, SEM n = 3, read-out: binding affinity Kd
T2 construct: The full-length constructs of SOD1-wild type (aa: 1–145); His-tag (cleaved yes); made in house; host or cells: E. coli BL21 DE3
T2 sequence (P00441 whole entry): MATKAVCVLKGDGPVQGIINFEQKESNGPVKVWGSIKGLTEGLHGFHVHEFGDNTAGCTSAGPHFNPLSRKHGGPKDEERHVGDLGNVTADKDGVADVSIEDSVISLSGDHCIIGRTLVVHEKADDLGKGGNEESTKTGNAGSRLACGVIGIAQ
Experimental: To evaluate the binding efficiency of the ligand PB with SOD1^WT, a quantitative binding assay by microscale thermophoresis (MST) was performed. SOD1^WT was labeled at its cysteine residues to ensure non-interference with lysine-containing binding sites of PB (K9, K122, and K128). The cysteine label targeted free cysteines lying away from the ligand-binding site region. The fluorescently labeled SOD1^WT and 16 different concentrations of PB from 250 μM to 30.5 nM were prepared to evaluate the binding interactions between SOD1^WT and PB, as discussed in the methodology. […] The binding affinity was calculated based on the directional movement of molecules along a temperature gradient and the thermophoretic properties of the protein-ligand molecules.
Fig 4 MST interaction analysis of fluorescently labeled SOD1^WT against PB. The binding of PB to fluorescently Cys-labeled SOD1^WT is quantified in PBS buffer. The concentration of PB varied from 30.5 nM to 250 μM, while the protein SOD1^WT was kept constant at 25 nM. MST experiments were conducted at 20% LED excitation and medium MST power at 25 °C. […] Error bars indicate the standard error of the mean, SEM (n = 3).
as §3

SOD1^K9F = molecular target: T3, SOD1^K9F (Homo sapiens, UniProt P00441, K10F); assay: MST binding assay, site-specific mutant SOD1^K9F; conditions: PBS buffer, mutant 25 nM, PB 30.5 nM to 250 μM, 25 °C
T3 construct: His-tag (cleaved yes); made in house; host or cells: E. coli BL21-DE3
T3 sequence (P00441 whole entry K10F): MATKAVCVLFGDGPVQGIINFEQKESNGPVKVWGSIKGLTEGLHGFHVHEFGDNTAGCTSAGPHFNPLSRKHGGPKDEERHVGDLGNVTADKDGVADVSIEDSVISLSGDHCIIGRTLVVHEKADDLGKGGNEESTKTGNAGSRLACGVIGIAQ
Experimental: as §1, §2, §3

Kd (SOD1^WT): 3.7 ± 1.2 µM
binding affinity Kd (SOD1^K9F): no binding
Structure (SMILES): CCCC[C@H](C)/C=C(C)/C=C/C(=O)O [PB, (S, 2E, 4E)-4,6-dimethyldeca-2,4-dienoic acid]
binding affinity Kd (SOD1^A123F): very weak binding; also recorded: weak-binding
